Measured values taken from BindingDB's records for doi:10.1021/jm100571n (Novartis Institutes For Biomedical Research, 2010).

Tests used:
[1] = target: Tyrosine-protein kinase SYK (Homo sapiens) (UniProt P43405); test: Inhibition of SYK
[2] = target: 3-phosphoinositide-dependent protein kinase 1 (Homo sapiens) (UniProt O15530); test: Inhibition of PDK1

IC50 [1] [µM] | IC50 [2] [µM] | Structure (SMILES)
> 10 | > 10 | CC(C)c1n[nH]c(Cl)c1-c1ccnc(Nc2ccc(N3CCC(N(C)C)CC3)cn2)n1 [4-(5-Chloro-3-isopropyl-1H-pyrazol-4-yl)-N-(5-(4-(dimethylamino)piperidin-1-yl)pyridin-2-yl)pyrimidin-2-amine]
> 10 | > 10 | CC(C)c1[nH]nc(C(F)(F)F)c1-c1ccnc(Nc2ccc(N3CCC(N(C)C)CC3)cn2)n1 [N*6'*-[4-(5-Isopropyl-3-trifluoromethyl-1H-pyrazol-4-yl)-pyrimidin-2-yl]-N*4*,N*4*-dimethyl-3,4,5,6-tetrahydro-2H-[1,3']-bipyridinyl-4,6'-diamine]
